# Results reported in patent US10844064B2, “sGC stimulators” (Cyclerion Therapeutics, Inc., priority 2014, dated 2020).
# “And” between values parts separate entries of the source, which are not always exact repeats. Equal values may be shown once.
# How the values were obtained:
# [1] = tested on: lambs with acute pulmonary hypertension; conditions: inhaled microparticles, awake lambs, cited from earlier work; for pulmonary vasodilation: U-46619 infusion to mean pulmonary arterial pressure 35 mm Hg; for effect on mean arterial pressure / transpulmonary cGMP release / systemic arterial oxygenation: U-46619 infusion
# [2] = tested on: obese mice; conditions: cited from earlier work
# [3] = target: T1, soluble guanylate cyclase (sGC) (Homo sapiens, UniProt Q02108+Q02153); assay: sGC-HEK-cGMP assay with LC/MS detection (Example 2A); type: cell-based; conditions: HEK293 cells, 10 μM DETA-NONOate, 20 min; concentration eliciting 50% of high control response (30 μM Compound Y); read-out: Absolute EC50 (nM) - binned
# T1 construct: endogenously expressing soluble guanylate cyclase (sGC); endogenous in cells; host or cells: HEK293
# T1 sequence (Q02108 1-690): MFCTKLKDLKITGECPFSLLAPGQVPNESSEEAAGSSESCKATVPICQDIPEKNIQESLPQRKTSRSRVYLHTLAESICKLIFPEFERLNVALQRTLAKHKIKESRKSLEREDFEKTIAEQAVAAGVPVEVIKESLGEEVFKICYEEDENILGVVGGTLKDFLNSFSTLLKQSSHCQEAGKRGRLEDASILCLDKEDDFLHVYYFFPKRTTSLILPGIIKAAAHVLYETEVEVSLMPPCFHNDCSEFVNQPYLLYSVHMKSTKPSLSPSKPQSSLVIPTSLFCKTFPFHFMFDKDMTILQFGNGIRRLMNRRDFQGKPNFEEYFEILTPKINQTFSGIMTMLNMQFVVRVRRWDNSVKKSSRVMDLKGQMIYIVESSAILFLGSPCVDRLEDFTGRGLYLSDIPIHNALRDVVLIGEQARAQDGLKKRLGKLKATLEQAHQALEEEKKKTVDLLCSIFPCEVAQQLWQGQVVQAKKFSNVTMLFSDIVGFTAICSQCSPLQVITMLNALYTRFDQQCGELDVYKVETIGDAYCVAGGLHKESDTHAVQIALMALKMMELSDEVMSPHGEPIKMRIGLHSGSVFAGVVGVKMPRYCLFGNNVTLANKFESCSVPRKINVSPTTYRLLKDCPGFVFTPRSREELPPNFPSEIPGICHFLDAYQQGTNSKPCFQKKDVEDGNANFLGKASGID
# T1 sequence (Q02153 1-619): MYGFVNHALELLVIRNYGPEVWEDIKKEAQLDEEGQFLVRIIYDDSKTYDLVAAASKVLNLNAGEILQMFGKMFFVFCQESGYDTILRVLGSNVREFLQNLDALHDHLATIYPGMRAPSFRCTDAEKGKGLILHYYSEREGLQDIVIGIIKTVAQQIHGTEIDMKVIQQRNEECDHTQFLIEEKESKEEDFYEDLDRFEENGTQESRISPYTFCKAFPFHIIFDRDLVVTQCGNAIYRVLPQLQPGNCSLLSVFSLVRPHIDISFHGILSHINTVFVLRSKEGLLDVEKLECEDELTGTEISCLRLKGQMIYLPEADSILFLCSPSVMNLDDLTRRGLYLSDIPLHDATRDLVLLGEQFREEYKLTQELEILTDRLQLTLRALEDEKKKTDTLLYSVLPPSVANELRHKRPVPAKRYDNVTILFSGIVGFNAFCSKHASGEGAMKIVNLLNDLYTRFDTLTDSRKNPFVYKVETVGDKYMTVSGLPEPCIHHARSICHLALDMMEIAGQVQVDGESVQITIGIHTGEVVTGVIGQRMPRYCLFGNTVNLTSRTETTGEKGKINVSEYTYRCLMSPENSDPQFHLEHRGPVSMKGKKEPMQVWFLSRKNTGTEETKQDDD
# Experimental: Human embryonic kidney cells (HEK293), endogenously expressing soluble guanylate cyclase (sGC), were used to evaluate the activity of test compounds. Compounds stimulating the sGC enzyme should cause an increase in the intracellular concentration of cGMP. HEK 293 cells were seeded in Dulbecco's Modification of Eagle's Medium supplemented with fetal bovine serum (10% final) and penicillin (100 U/mL)/streptomycin (100 μg/mL) in a 50 μL, volume at a density of 1.5×10^4 cells/well in a poly-D-lysine coated 384 well flat bottom plate. Cells were incubated overnight at 37° C. in a humidified chamber with 5% CO2. Medium was aspirated and cells were washed with 1× Hank's Buffered Saline Salt Solution (50 μL). Cells were then incubated for 15 minutes at 37° C. with 50 μL of a 0.5 mM 3-isobutyl-1-methylxanthine (IBMX) solution. Test article and Diethylenetriamine NONOate (DETA-NONOate) solutions (x μM concentration for test article solution and 10 μM concentration for DETA-NONOate solution; wherein x is one of the following concentrations);
# were then added to the assay mixture and the resulting mixture incubated at 37° C. for 20 minutes. After the 20 minute incubation, the assay mixture was aspirated and 10% acetic acid containing 150 ng/mL+3-cGMP (internal standard for LCMS) (50 μL) was added to the cells. The plate was incubated at 4° C. for 30 minutes in the acetic acid solution to stop the reaction and lyse the cells. The plates were then centrifuged at 1,000 g for 3 minutes at 4° C. and the supernatant transferred to a clean reaction plate for LCMS analysis.
# cGMP concentrations were determined from each sample using the LCMS conditions below (Table 2) and calculated standard curve. The standard curve was prepared in 10% acetic acid with 150 ng/mL+3cGMP (isotopically labelled cGMP with a weight 3 units higher than wild type) with the following final concentrations of cGMP in ng/mL: 1, 5, 10, 50, 100, 250, 500, 1000, 2000.
# (§1) Data were normalized to a high control using the following equation: 100*(Sample—Low Control)/(High Control—Low Control), where the low control is the average of 16 samples treated with 1% DMSO, and the high control is the average of 16 samples treated with 30 μM of Compound Y depicted below. Data were fit using a 4-parameter fit (log(agonist) vs. response variable slope) using GraphPad Prism Software v.5. n=2 for all compounds. […] Compounds failing to elicit a minimum response of 50% are reported as >30 μM. For compounds run in duplicate or n higher than 2, the result herein given is the geometric mean of the several results obtained.
# [4] = target: T2, sGC enzyme (Homo sapiens, UniProt Q02108+Q02153); assay: cGMP GloSensor cell-based assay, 384-well format (Example 2B); conditions: HEK293 GloSensor 40F cGMP cells, 10 μM DETA-NONOate; 50% of high control response (Compound Y); read-out: sGC_HEK_GloSensor EC50/IC50 Abs (Norm) (nM) Binned
# T2 construct: host or cells: HEK293 expressing GloSensor 40F cGMP
# T2 sequence (Q02108 1-690): T1 sequence (Q02108 1-690)
# T2 sequence (Q02153 1-619): T1 sequence (Q02153 1-619)
# Experimental: as §1
# Human embryonic kidney cells (HEK293) cells expressing GloSensor™ 40F cGMP (Part No: CS182801, Promega) were used to evaluate the activity of test compounds. The luminescent biosensors (engineered luciferase) that were incorporated into these cells detect cGMP formed by the compounds stimulating the sGC enzyme and emit luminescence.
# cGMP GloSensor cells were maintained in Dulbecco's Modification of Eagle's Medium (DMEM) supplemented with fetal bovine serum (FBS) (10% final) and hygromycine (200 μg/ml). The day before assay, cells were plated in DMEM with 10% FBS in a 50 μL volume at a density of 1.5×10^4 cells/well in a poly-D-lysine coated 384-well flat white-bottom plate (Corning Cat No 35661). Cells were incubated overnight at 37° C. in a humidified chamber with 5% CO2. The next day, medium was removed and cells were replaced with 40 μl/well of GloSensor™, […] (Promega Cat No E1291). Cells were treated for 90 minutes at 25° C. to allow the substrate to equilibrate in the cells. Test compounds and Diethylenetriamine NONOate (DETA-NONOate) was diluted to […] in serum-free CO2 independent medium and serally diluted at 4× dilutions to create 5× dose curve from which 10 ul was added to the wells (x uM concentration for test compound solution and 10 μM concentration for DETA-NONOate solution; wherein x is one of the following final concentrations).
# For the kinetics studies, luminescense was measured right away for 0.2 sec per well with Envision (Perkin Elmer model No). For endpoint SAR screening, data were collected after 55 min incubation at room temperature.
# Data analysis was carried out as indicated above in Example 2A.
# [5] = tested on: Guinea pig tracheal smooth muscle; assay: Electrical field stimulated guinea pig tracheal smooth muscle contraction (ex vivo); conditions: sub-maximal EFS, cumulative dose response curve, three animals pooled; 95% Cl 0.78-0.94; read-out: IC50 (inhibition of EFS-induced baseline contraction)
# Description: Electrical Field Stimulated Guinea Pig Tracheal Smooth Muscle In Vitro (ex vivo) Model for the Assessment of Bronchodilation.
# Animals: Guinea pig, Dunkin Hartley, male, Full barrier-bred and certified free of specific micro-organisms on receipt 525-609 g on the experimental day, Harlan UK Ltd. Guinea pigs are housed in a group of 4 in solid-bottomed cages with Gold Flake bedding in a controlled environment (airflow, temperature and humidity). Food (FD1, Special Diet Services) and water are provided ad libitum.
# On each experimental day, a guinea pig is killed by exposure to a rising concentration of CO2 and the trachea removed. […] Tissues are washed with Kreb's buffer and stimulated using the previously determined sub-maximal voltage for 1 hour to establish a stable baseline contraction prior to assessment of compound activity.
# A cumulative dose response curve (DRC) to each test substance is then performed and changes in smooth muscle contraction measured. The effect of each test substance in each experiment is expressed as a percentage inhibition of the baseline contraction, normalized to the relevant vehicle controls. […] The data from all three experiments are pooled, the DRC plotted, and the test substance potency and efficacy determined.
EC50 [3] [nM],Structure (SMILES),pulmonary vasodilation [1],effect on mean arterial pressure [1],transpulmonary cGMP release [1],also measured
,Nc1nc(-c2nn(Cc3ccccc3F)c3ncccc23)ncc1C1CC1 [BAY 41-2272],dose dependent pulmonary vasodilation,without significant effect,increased transpulmonary cGMP release,
,Nc1nc(-c2nn(Cc3ccccc3F)c3ncccc23)nc(N)c1N1CCOCC1 [BAY 41-8543],dose dependent pulmonary vasodilation,without significant effect,increased transpulmonary cGMP release,systemic arterial oxygenation [1]: increased systemic arterial oxygenation
,O=C(O)CCCCN(CCc1ccccc1OCc1ccc(CCc2ccccc2)cc1)Cc1ccc(C(=O)O)cc1 [BAY 58-2667],dose dependent pulmonary vasodilation,without significant effect,increased transpulmonary cGMP release,systemic arterial oxygenation [1]: increased systemic arterial oxygenation
,O=C(O)CCCCN(CCc1cc(F)ccc1OCc1ccc(-c2ccc(C(F)(F)F)cc2)cc1)Cc1ccc(C(=O)O)cc1 [BAY 60-2770],,,,effect on overactive bladder [2]: ameliorates overactive bladder
> 1000,COCc1cc(-c2nc(N)c3c(n2)NC(=O)C3(C)C(N)=O)nn1Cc1ccccc1F (stereo not shown) [Compound I-22],,,,
100 to 1000,COc1cc(-c2nc(N)c3c(n2)NC(=O)C3(C)C)nn1Cc1ccccc1F [Compound I-23],,,,
> 1000,"Cc1cc(-c2nc(N)c3c(n2)NC(=O)C3(C)C)nn1Cc1ccccc1F [Compound I-71, 4-amino-2-(1-(2-fluorobenzyl)-5-methyl-1H-pyrazol-3-yl)-5,5-dimethyl-5H-pyrrolo[2,3-d]pyrimidin-6(7H)-one]",,,,EC50 [4]: 100 to 1000 nM
> 1000,Cc1cc(-c2ncc3c(n2)NC(=O)C3(C)C)nn1Cc1ccccc1F [Compound I-72],,,,EC50 [4]: < 100 nM and 100 to 1000 nM
,CC(C)[N+]1(C)[C@@H]2CC[C@H]1CC(OC(=O)C(CO)c1ccccc1)C2 (stereo partly shown) [Ipratropium bromide],,,,IC50 [5]: 0.86 nM
